Data taken from patent US20240327425A1, “KRAS G12D INHIBITOR AND USE THEREOF” (SHANGHAI DE NOVO PHARMATECH CO., LTD., priority 2021, published 2024).

What was measured:
[1] = target: Human KRAS G12D His-tagged protein (Homo sapiens (Human), UniProt P01116, G12D); assay: KRAS G12D binding assay (TR-FRET); settings: GDP 20 nM, GTP-Red
Method: The binding ability of the compound to KRAS G12D protein was detected by TR-FRET method, and the inhibitory activity of the compound on KRAS G12D protein was evaluated. Human KRAS G12D His-tagged (Cisbio, 63ADK000CB27PEG) protein was 100-fold diluted with PPI Eu detection buffer (Cisbio, 61DB9RBF), then 5 μL of which was added to a 384-well plate and centrifuged at 2000 rpm for 40 seconds. A 10 mM concentrated stock solution of the test compound was prepared with dimethyl sulfoxide, 3-fold serially diluted, then diluted to make a working solution (0.5% DMSO) with PPI Eu detection buffer, added to a 384-well plate at 5 μL/well, with the control group added with 0.5% dimethyl sulfoxide and the highest concentration of the test compound at 10 μM, and centrifuged at 2000 rpm for 40 seconds. An 80 nM GDP standard working solution (Cisbio, 63ADK000CB27PEG) was prepared with PPI Eu detection buffer and added to a 384-well plate at 5 μL/well, with the final concentration of GDP standard working solution at 20 nM. The plate was centrifuged at 2000 rpm for 40 seconds and reacted at room temperature for 30 minutes. 1×6His Eu cryptate antibody and GTP-Red reagent (Cisbio, 63ADK000CB27PEG) were prepared with PPI Eu detection buffer, mixed in a volume ratio of 1:1, 5 μL of which was then added to a 384-well plate, centrifuged at 2000 rpm for 40 seconds, and incubated at room temperature for 30 minutes. The fluorescence intensity at 620 nm and 665 nm was detected by a microplate reader, and the inhibitory activity of the compound on KRAS G12D protein was obtained by fitting a four-parameter equation.

[2] = system: GP2D human colon cancer cells; assay: Cell proliferation assay (Cell Titer-Glo), GP2D; format: cell-based; settings: 72 hours
Method: (§1) On day 1, AGS human gastric cancer cells, ASPC-1 human pancreatic cancer cells, or GP2D human colon cancer cells (Nanjing Cobioer Biosciences Co. Ltd.) in the logarithmic growth phase were taken, digested with an appropriate amount of trypsin, formulated into a single cell suspension using RPMI 1640 (Gibco) medium containing 10% fetal bovine serum and 1% penicillin-streptomycin, counted to adjust the cell density, inoculated in a 96-well plate at 95 μL/well so that there were 3000 cells per well, and then the cell culture plate was incubated in a 37° C., 5% CO2 incubator for overnight. On day 2, a 10 mM concentrated stock solution of KRAS G12D inhibitor was 3-fold serially diluted with dimethyl sulfoxide solution, and then diluted with AGS complete culture medium to make a working solution, which was added to a cell culture plate at 5 μL/well so that the compound had the highest concentration of 10 μM and the lowest concentration of 0.0015 μM, and the control group was 0.5% dimethyl sulfoxide. The cell culture plate was briefly centrifuged and then incubated in a CO2 incubator for 72 hours. On day 5, the cell culture plate was taken out, added with Cell Titer-Glo (Promega) detection reagent in each well, incubated in the dark for 10 minutes, and then luminescence was detected using a microplate reader (Tecan, Infinite M1000 Pro). Data were analyzed using Graphpad software, and curve fitting was performed with four-parameter equation and the IC50 value of the inhibitor was calculated.

[3] = system: phosphorylation level of ERK1/2 in ASPC-1 human pancreatic cancer cells; assay: pERK cell level assay (PHOSPHO-ERK1/2 HTRF kit); format: cell-based; settings: Aspc-1 cells, 4 hours incubation
Method: In this experiment, the phosphorylation level of ERK1/2 in AGS human gastric cancer cells or ASPC-1 human pancreatic cancer cells was detected using PHOSPHO-ERK1/2 (THR202/TYR 204) (Cisibo, 64ERKPEH) kit, and the inhibitory effect of the compounds on KRAS G12D was investigated based on the phosphorylation level of ERK1/2.
On day 1, the density of AGS cell (ATCC) suspension was adjusted to 2.1×10^5 cells/mL, then the suspension was spread in a 96-well plate at 95 μL/well so that there were 2×10^4 cells per well, and the cell culture plate was incubated in a 37° C., 5% CO2 incubator for overnight. On day 2, the compound was serially diluted with 100% dimethyl sulfoxide, and then further diluted with a complete culture medium (RPMI-1640+10% FBS+1% PS) to make a working solution of the compound, which was added to a 96-well cell culture plate at 5 μL/well, and incubated in a 37° C., 5% CO2 incubator for 4 hours. After the incubation was completed, the culture medium was discarded, then 1× lysis buffer was added thereto at 50 μL/well, and the plate was shaken at room temperature for 30 minutes. 16 μL of lysis buffer was added to a white 384-well shallow well plate, then 4 μL of pre-formulated antibody mixture was added thereto, and the plate was sealed with microplate sealer and incubated at room temperature for overnight. On day 3, detection was performed on a TECAN M1000 Pro microplate reader using the HTRF setting, and the IC50 value of the compound was calculated.

[4] = system: ASPC-1 human pancreatic cancer cells; assay: Cell proliferation assay (Cell Titer-Glo), ASPC-1; format: cell-based
Method: as §1

[5] = system: GP2D human colon cancer cells subcutaneous xenograft tumor; assay: In vivo pharmacodynamic experiment of subcutaneous xenograft tumor model in mice of GP2D human colon cancer cells; settings: BALB/c nude mice; for Tumor volume (11 days, mm^3): 11 days (at grouping)
Method: Cell culture: GP2D human colon cancer cells were maintained in monolayer culture in DMEM culture medium containing 10% fetal bovine serum in a constant temperature incubator containing 5% CO2 at 37° C. Tumor cells were passaged twice a week. Cells in the exponential growth phase were harvested and counted for inoculation.
Experimental animals: BALB/c nude mice, 6 to 8 weeks, 18 to 22 g, purchased from Jiangsu GemPharmatech Co. Ltd.
Experimental method: GP2D cell line ([…]) was inoculated subcutaneously on the right back of experimental mice. The inoculation volume of each mouse was 0.1 mL. The growth of the tumor was observed regularly. When the tumor grew to about 150 mm^3, the mice were randomly grouped according to the tumor size and body weight, and the drug was administrated according to the administration plan shown in Table 1. The body weight and tumor size were measured twice a week throughout the experiment.
tumor volume (mm^3)=0.5×(tumor long diameter×tumor short diameter^2). Tumor size calculation formula: […]

Chain of Human KRAS G12D His-tagged protein (P01116-2 other isoform, or with tags, fused parts or gaps G12D): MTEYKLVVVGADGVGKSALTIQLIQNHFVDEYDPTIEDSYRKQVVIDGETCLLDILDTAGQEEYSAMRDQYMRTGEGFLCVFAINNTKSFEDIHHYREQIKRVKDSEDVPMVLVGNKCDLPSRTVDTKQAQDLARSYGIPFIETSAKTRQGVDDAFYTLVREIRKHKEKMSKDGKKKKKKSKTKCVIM

CC(Oc1nc2c3c(c(Cl)c(-c4cccc5sc(N)c(C#N)c45)c(F)c3n1)OC[C@@H]1[C@@H]3CC[C@H](CN21)N3)[C@@]12CCCN1C[C@H](F)C2 (stereo partly drawn) [Compound I-17, 2-amino-4-((5aS,6S,9R)-3-chloro-1-fluoro-13-(1-((2R,7aS)-2-fluorohexahydro-1H-pyrrolizin-7a-yl)ethoxy)-5a,6,7,8,9,10-hexahydro-5H-6,9-epiminoazepino[2′,1′:3,4][1,4]oxazepino[5,6,7-de]quinazolin-2-yl)benzo[b]thiophene-3-carbonitrile ditrifluoroacetate]
IC50 [1]: 7.77 nM
IC50 [2]: 0.497 nM
IC50 ([3]; pERK1/2 (THR202/TYR204)): 5.58 nM
IC50 ([4]; Aspc-1, 72 hours): 31.9 nM

N#Cc1c(N)sc2cccc(-c3c(Cl)c4c5c(nc(OC[C@@]67CCCN6C[C@H](F)C7)nc5c3F)N3C[C@H]5CC[C@H](N5)[C@H]3CO4)c12 (single isomer, unassigned) [Compound I-7-2]
Tumor volume (11 days, mm^3) ([5]; 3 mg/kg i.p. twice a day): 140.32 ± 19.74 mm^3
Tumor volume (21 days, mm^3) ([5]; 3 mg/kg i.p. twice a day): 80.27 ± 11.38 mm^3
T/C (%) ([5]; 3 mg/kg i.p. twice a day): 18.6%
Tumor regression rate (%) ([5]; 3 mg/kg i.p. twice a day): −39.9%
Tumor volume (11 days, mm^3) ([5]; 10 mg/kg i.p. twice a day): 139.69 ± 17.49 mm^3
Tumor volume (21 days, mm^3) ([5]; 10 mg/kg i.p. twice a day): 70.19 ± 11.89 mm^3
T/C (%) ([5]; 10 mg/kg i.p. twice a day): 15.5%
Tumor regression rate (%) ([5]; 10 mg/kg i.p. twice a day): −49.8%
IC50 [1]: 2.44 nM
IC50 ([2]; Homo sapiens): 0.095 nM
IC50 ([3]; Homo sapiens, ASPC1, pERK1/2 (THR202/TYR204)): 0.544 nM
IC50 ([4]; Homo sapiens, ASPC1, Aspc-1, 72 hours): 1.7 nM
